Results on six molecules are retold here after patent publication US20150140125A1, “SYNERGISTIC CANCER THERAPY DRUG COMBINATIONS” (Life Plus, LLC, priority 2013, published 2015).

“Also recorded” adds a separate entry of the source.

Common to all, as to type: cell-based
The subject of assay [1] is human alveolar adenocarcinoma cell line (H358). The text has this:
Pub. […] Cells were pipetted into the mold and allowed 3-5 days to form 3-D clusters, mimicking miniature tumors. The cell clusters were removed from the mold by washing and gentle pipetting. The cell clusters were placed in media containing 0.5% FBS. The clusters were dispensed into 96-well plates at a density of approximately 12-15 clusters per well for testing with the therapeutic composition designated herein as “GZ17” and a known chemotherapeutic agent (doxorubicin, aka adriamycin).
The cell clusters were tested against GZ17 and doxorubicin individually at various dosages, and then against the combination therapeutic containing both agents.
(§1) 96-well cell culture plates were loaded with increasing doses of GZ17 (graph on left) within a row. The doses were each added to 8 rows of each plate for 8 replicates at each dose. Cell clusters were pipetted into each well, and exposed for 24 hours to GZ17. At the completion of 24 hours, the wells were treated with 20 microliters of Prestoblue and allowed to incubate for up to 4 hours. The plates were read at 2-4 different time points after exposure to Prestoblue ranging from 30 minutes to 4 hours. The one-hour time point was the most often used and reported. The plates were loaded into a Perkin Elmer Enspire plate reader and each well was excited at 490 nm and read at 560 nm wavelengths. Relative fluorescence for each well was read.
The chemotherapy classification of paclitaxel (also known as taxol) is a mitotic inhibitor. It works by stabilizing the microtubules. The microtubules are part of the cytoskeleton of the cell. When the cells go into cell division, the microtubules must disassemble so that the cell can divide. However, with paclitaxel, the microtubule polymer can't disassemble, and thus the cells can't divide which triggers apoptosis, or programmed cell death. There are subcategories of drugs in the mitotic inhibitor class including the vinca alkaloids (vincristine and vinblastine) and the colchicines class, podophyllotoxin and griseofulvin. Other drugs that work like paclitaxel are the taxanes and docotaxel.
The study was again repeating using fluorouracil. Fluorouracil is an anti-metabolite chemotherapy. It mimics pyrimidine and incorporates into the DNA and RNA blocking the ability of the cell to divide, and eventually ending in death of the cancer cells. Other drugs in this category include cytarabine and 6-azauracil.
(§2) The powder was reconstituted in deionized water and agitated to ensure substantial homogeneity.

Assay [2] relates to human ovarian cancer cell line (A1847). Description: 3-D ovarian cancer cell cluster viability (Prestoblue fluorescence). Conditions: for doses giving a statistically significant decrease in live cells: agent alone; for dose that had to be reached before the agent alone had an effect: ovarian cancer spheroids. On the procedure: as §1
The human ovarian cancer cell line (A1847) was used to create miniature tumors by loading the individual cells in a micromold according to U.S. Pat. App. Pub. […] Cells were pipetted into the mold and allowed 2-3 days to form 3-D clusters, mimicking miniature tumors. Cell clusters were removed from the mold by washing and gentle pipetting. Cell clusters were placed in media containing 0.5% FBS. The clusters were dispensed into 96-well plates at a density of approximately 10-15 clusters per well. […]
as §2

The test system is the same in assay [3]. The description is as above. As to conditions: paclitaxel alone at 3.16 μM.

As for `O=C(O)CCCc1ccc(N(CCCl)CCCl)cc1` [chlorambucil], the “effect of the agent alone on lung cancer spheroids” value in assay [1] (agent alone) is “no effect”. For the same molecule, the “effect of the agent alone on ovarian cancer clusters” value in assay [2] was “no effect on its own”.
With `N.N.[Cl][Pt][Cl]` [cisplatin], in assay [2], the “doses giving a statistically significant decrease in live cells” value was no less than 31.6 µM and the “dose that had to be reached before the agent alone had an effect” value is no less than 10 µM.
Regarding `COc1cccc2c1C(=O)c1c(O)c3c(c(O)c1C2=O)C[C@@](O)(C(=O)CO)C[C@@H]3O[C@H]1C[C@H](N)[C@H](O)[C@H](C)O1` [doxorubicin], in assay [1] (agent alone, 24 h exposure), the “relative fluorescence (live cells) with increasing dose” value is “fluorescence declined”. Besides, the “percent of the cancer cells caused to die” value in assay [1] (doxorubicin alone, 1.58 μM, 24 h) stood at 36%. Moreover, the “reduction in the number of cells from the baseline” value in assay [1] (doxorubicin alone, 0.002 to 0.158 μM) is listed as “no statistically significant reduction; also recorded: had no effect”. For the same molecule, the “doses giving a statistically significant decrease in live cells” value in assay [2] is no less than 0.5 µM.
For `O=c1[nH]cc(F)c(=O)[nH]1` [fluorouracil], the “doses giving a significant decrease in cell numbers” value in assay [1] (agent alone) was no less than 1.58 µM. Also, the “dose that had to be reached before the agent alone had more than little effect” value in assay [1] (agent alone, lung cancer spheroids) was no less than 1.58 µM. In assay [2], the “effect of the agent alone on ovarian cancer clusters” value is recorded as “the dose response was minimal” and the “dose that had to be reached before the agent alone had an effect” value was no less than 3.16 µM.
As to `CN(Cc1cnc2nc(N)nc(N)c2n1)c1ccc(C(=O)N[C@@H](CCC(=O)O)C(=O)O)cc1` [methotrexate], the “effect of the agent alone on lung cancer spheroids” value in assay [1] (agent alone) is “no effect alone”.
With `CC(=O)O[C@H]1C(=O)[C@@]2(C)[C@H]([C@H](OC(=O)c3ccccc3)[C@]3(O)C[C@H](OC(=O)[C@H](O)[C@@H](NC(=O)c4ccccc4)c4ccccc4)C(C)=C1C3(C)C)[C@]1(OC(C)=O)CO[C@@H]1C[C@@H]2O` [paclitaxel], the “dose at which the number of live cells is reduced (other doses not significant)” value in assay [1] (paclitaxel alone) is 5 µM. Besides, in assay [2], the “doses giving a statistically significant decrease in live cells” value was 0.01 µM and the “dose that had to be reached before the agent alone had an effect” value was no less than 31.6 µM. Moreover, the “effect on cancer cell death” value in assay [3] is “no effect on cancer cell death”.
